Test results reported in article PMC10987960.

Key:
PEDV 3CL^pro [1] = target: T1, PEDV 3CL^pro (Porcine epidemic diarrhea virus CV777, UniProt P0C6Y4); assay: FRET protease assay, Dabcyl/Edans peptide; format: biochemical
T1 construct: gene rep; mature nsp5 cut from replicase polyproteins pp1a/pp1ab; N- and C-terminal His tags (kept, no cleavage told), pET-28a(+), E. coli BL21(DE3), nickel column; docking used PDB 4XFQ
T1 sequence (P0C6Y4 2998-3299 limits assumed): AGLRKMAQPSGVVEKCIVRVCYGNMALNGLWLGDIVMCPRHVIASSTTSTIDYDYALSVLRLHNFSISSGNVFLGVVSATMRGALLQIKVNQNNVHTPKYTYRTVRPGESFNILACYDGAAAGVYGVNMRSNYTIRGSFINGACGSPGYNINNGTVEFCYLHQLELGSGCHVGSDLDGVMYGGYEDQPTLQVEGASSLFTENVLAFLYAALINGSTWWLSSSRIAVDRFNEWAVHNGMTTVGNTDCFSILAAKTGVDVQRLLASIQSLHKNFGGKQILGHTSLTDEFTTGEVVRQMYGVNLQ

PEDV 3CL^pro [2] = target: T1, PEDV 3CL^pro; assay: FRET protease assay, Dabcyl/Edans peptide; format: biochemical; details: read-out: Inhibitory rate
From the text: FRET protease assay, Dabcyl/Edans peptide on PEDV 3CL^pro

Structure (SMILES) | IC50 (PEDV 3CL^pro [1]) [µM] | inhibition at 20 µM (PEDV 3CL^pro [2]) [%]
O=c1cc(-c2ccccc2)oc2cc(O)c(O)c(O)c12 [Baicalein] | 9.5 ± 1.02 | –
O=C(O)[C@H]1O[C@@H](Oc2cc3oc(-c4ccccc4)cc(=O)c3c(O)c2O)[C@H](O)[C@@H](O)[C@@H]1O [Baicalin] | 65.8 ± 6.57 | –
O=C(O[C@@H]1Cc2c(O)cc(O)cc2O[C@H]1c1cc(O)c(O)c(O)c1)c1cc(O)c(O)c(O)c1 [compound 1, (−)-Gallocatechin gallate] | – | 97.65 ± 0.35
O=c1c(O)c(-c2ccc(O)c(O)c2)oc2cc(O)ccc12 [compound 2, Fisetin] | – | 96.8 ± 2.64
O=c1c(O)c(-c2ccc(O)c(O)c2)oc2cc(O)c(O)c(O)c12 [compound 3, Quercetagetin] | – | 91.8 ± 2.74
O=c1c(-c2ccc(O)cc2)coc2cc(O)ccc12 [compound 4, Daidzein] | – | 91.26 ± 0.85
O=c1c(O)c(-c2cc(O)c(O)c(O)c2)oc2cc(O)cc(O)c12 [compound 6, Myricetin] | – | 75.3 ± 2.33
